Each structure is given as a SMILES string. “Also recorded” adds a separate entry of the source.

For data set [1], the system named is Primary human pulmonary artery endothelial cells (HPAEC). The data set is described as follows: Glutathione (GSH) levels in primary human endothelial cells under hemin stress. The class given is cell-based. On the procedure: Example 149. Glutathione (GSH) Levels in Primary Human Endothelial Cells
Primary human pulmonary artery endothelial cells (HPAEC) (Lonza # CC-2530) cultured in endothelial cell growth medium-2 (EGM2 media, Lonza # CC-3162) were seeded in white 96-well plate (Corning® #3610) at 12.5 k cells per well and placed at 37° C. in 5% CO2. 18-24 hr post seeding, cells were treated with the compound of Example 17 via media change. 24 hr post treatment with the compound, cells were treated using a freshly prepared hemin stock (Sigma-Aldrich #51280 in 0.1N NaOH) alone or with the compound of Example 17. […] Media was aspirated off and GSH-Glo™ Glutathione Assay (Promega # V6911) was run following the manufacturer's protocol. White bottom plate seal (PerkinElmer #6005199) was used during read. Analysis was done using Softmax Pro.

The subject of a further data set is HbSS Townes sickle mice. The data set is described as follows: Heme-induced vaso-occlusion (stasis) in HbSS Townes sickle mice. The data set is classed as in vivo. To be noted: 10, 25, 50 mg/kg PO once daily for 8 days, 1 h after heme infusion. An excerpt: Townes-SS mice were gavaged once daily with Vehicle or the compound of Example 17 for 8 days. After the last gavage dorsal skin-fold chambers were implanted on the mice and 20-22 flowing venules were selected and mapped in the subcutaneous skin using intravital microscopy. Mice were then infused via the tail vein with Panhematin (3.2 μmots heme/kg body weight). One hour after infusion each venule was re-examined for microvascular stasis (no flow) and data are expressed as % stasis. Stasis values are means+SD. One-Way ANOVA with Dunnett's Multiple comparison to Vehicle ****P<0.0001
Dosing Scheme of HMOX Inducers to HbSS Townes Sickle Mice
HbSS Townes sickle mice were oral gavaged once daily with Vehicle or the compound of Example 17 listed below for 8 days. To minimize experimental inconsistency, fresh formulation was prepared every day and vortexed prior to drawing test article into syringe for each dosing, and dosing was performed by the same individual throughout the day. The last-day dose was administered by oral gavage 4 hours prior to hemin infusion described below. • 1. […]
Male and female sickle mice, approximately 12 weeks of age, were weighed before surgery. […] All of the selected venules were re-examined at 1 h after hemin infusion, and the number of static (no flow) venules was counted and expressed as percent stasis. […]

In the case of `Cn1c(Nc2nc3ccccc3o2)nc2cc(C(=O)NCCOCCO)ccc21` [Example 17, 2-(benzo[d]oxazol-2-ylamino)-N-(2-(2-hydroxyethoxy)ethyl)-1-methyl-1H-benzo[d]imidazole-5-carboxamide], the “GSH levels / protection from hemin mediated oxidative stress (in words)” value in data set [1] (24 hr pre-incubation, 30 min hemin stress) is reported as “protects these cells from hemin mediated oxidative stress”. In data set [1] (after 30 min of hemin stress), the “toxicity by visual inspection of cells” value is “no toxicity”. The “microvascular stasis compared with Vehicle (in words)” value in the data set with HbSS Townes sickle mice is reported as “significantly reduced; also recorded: dose responsively inhibit”.

The values above are taken from patent US10766888B1, “HMOX1 inducers” (Mitobridge Inc., priority 2019, dated 2020).
